Reference: patent publication US5998596A, “Inhibition of protein kinase activity by aptameric action of oligonucleotides” (The United States of America as represented by the …)

Key:
p210^bcr-abl kinase [1] = assay: Immunoprecipitation kinase assay of p210bcr-abl (autophosphorylation), ODN added to kinase reaction; format: biochemical, human; details: for inhibition of p210^bcr-abl kinase activity in vitro (in words): ODN at 1 μM added to the immunoprecipitated enzyme
Method: (§1) The p210^bcr-abl kinase, src kinase and cdc-2 kinase were immunoprecipitated from K562 cells. The p145^abl kinase was immunoprecipitated from PC3M cells, PDGF receptor kinase from 3T3 cells, and EGF receptor kinase from A431 cells. MAP kinase was utilized as a pure protein and lck kinase was immunoprecipitated from peripheral blood lymphocytes of a normal volunteer.
Cells were washed in phosphate buffered saline (PBS) and 0.5-5×10^6 cells were solubilized in 1 ml of the specified cell lysis buffers. Unless otherwise stated, all cell lysis buffers contained the following protease inhibitors: 20 μg/ml leupeptin, 1 μg/ml aprotinin, and 1 mM phenylmethylsulfonylfluroide. For p210^bcr-abl and […] immunoprecipitation, cells were lysed with ABL lysis buffer (25 mM imidazole, pH 7.2, 0.5% NP40, 50 mM NaCl, 1 mM Na3 VO4) and lysates were clarified at 14,000 g. 4° C. for 30 minutes. Cell lysis for all other proteins was performed according to the references describing the various immunoprecipitation kinase assays.
(§2) Immunoprecipitation kinase assays of p210^bcr-abl p145^abl were performed as described, with modifications (15). Briefly, for p210^bcr-abl, 1 μg of anti-bcr antibody (clone 7C6, Oncogene Science, Uniondale, N.Y.) was added to lysates prepared from 0.5-1×10^6 K562 cells. For p145^abl, 1 μg of anti-c-abl antibody (clone 24-21), which binds to the C-terminal domain of p145^abl, was added to lysates prepared from 5×10^6 PC3M cells. After incubating 1 hour at 4° C., complexes were precipitated by incubating with protein A-Sepharose coated with rabbit anti-mouse immunoglobulin (Cappel Research Products, Durham, N.C.) for 30 minutes. The complexes were then washed as follows: ABL lysis buffer×2, PBS×1, and ABL assay buffer×1 (24 mM imidazole, pH 7.2, 1 mg/ml bovine serum albumin, and 10 mM MnCl). For p145^abl assays ABL assay buffer contained 20 mM MnCl. To access the activity of p210^bcr-abl on substrate phosphorylation, acid inactivated enolase (Sigma Chemical Co., St. Louis, Mo.) was added as described (15).
(§3) ODNs were added to kinase reaction buffers not more than 5 minutes prior to the addition of ATP. Reactions were initiated by the addition of [γ^-32 P] ATP (3000 Ci/mmole; Amersham Corp., Arlington Heights, Ill.) and quenched by the addition of 5× gel loading buffer and heating to 95° C. Kinase reactions were run for 1-10 minutes at room temperature, except for EGFR, p145^abl, and MAP kinase, which were run at 30° C. The products were then electrophoresed on SDS-polyacrylamide gels: 7% for p210^bcr-abl, EGFR, and PDGFR, 8% for p145^abl, 10% for src, lck, and cdc-2 kinase, and 12% for MAP kinase. Gels were dried and reaction products were visualized by direct autoradiography at -70° C. with Kodak X-OMAT AR film. To determine the inhibitory concentration 50, i.e., the concentration required to inhibit enzyme activity by 50% (IC50) and Ki values, gel slices containing the band of interest were excised and analyzed by Cerenkov counting.

[2] = tested on: Epidermal growth factor receptor (EGFR); assay: EGFR autophosphorylation immunoprecipitation kinase assay; format: biochemical
Excerpt: as §1
(§4) Epidermal growth factor receptor (EGFR) was immunoprecipitated with 10 ,g anti-EGFR antibody (clone LA1) and human recombinant epidermal growth factor (both from Upstate Biotechnology Inc., Lake Placid, N.Y.). The assay was performed as described (17) but without removing the EGFR from the protein A-antibody solid support. Instead, epidermal growth factor, at a final concentration of 100 nM, was added to the kinase reaction mixture. Platelet derived growth factor receptor (DGFR) was immunoprecipitated with anti-human type A/type B PDGFR antibody (Upstate Biotechnology Inc.) and immune complex kinase assays performed as referenced (18) except that protein A-Sepharose coated with rabbit anti-mouse immunoglobulin was used instead of formalin-fixed Staphylococcus aureus to bind PDGFR-antibody conjugates. C-src was immunoprecipitated with anti-v-src antibody (Ab-1; Oncogene Science) and assayed as previously described (19) with the addition of enolase as exogenous substrate. […]

src kinase = assay: Immunoprecipitation kinase assay of c-src with enolase as substrate; format: biochemical, human
Excerpt: as §1, §4

p145^abl kinase = assay: Phosphorylation of exogenous substrate enolase by p145abl; format: biochemical; details: ODN1 concentrations of up to 50 μM
Method: as §2
ODNs were added to kinase reaction buffers not more than 5 minutes prior to the addition of ATP. Reactions were initiated by the addition of [γ^-32 P] ATP (3000 Ci/mmole; Amersham Corp., Arlington Heights, Ill.) and quenched by the addition of 5× gel loading buffer and heating to 95° C. […]

lck kinase = assay: Immunoprecipitation kinase assay of lck; format: biochemical
Excerpt: as §1, §4

[3] = tested on: p210^bcr-abl kinase in K562 cells; assay: Immunoprecipitation kinase assay of p210bcr-abl from ODN treated K562 cells; format: cell-based, human; details: K562 cells incubated 3 days with 50 μM ODN, washed
Method: as §2, §3
The effects of ODN1 on a cellular system were assessed. […] After 3 days, cells were washed and p210^bcr-abl kinase activity was measured. […] Neither cellular p210^bcr-abl protein content nor cell growth was affected by ODN treatment (data not shown).

p210^bcr-abl kinase [4] = assay: Phosphorylation of exogenous substrate enolase by p210bcr-abl; format: biochemical, human
Method: as §2
ODNs were added to kinase reaction buffers not more than 5 minutes prior to the addition of ATP. […]
P210^bcr-abl from K562 cells was immunoprecipitated and kinase assays performed in the presence or absence of 1 μM BCR-AS with varying amounts of enolase present. […] Note that inhibition of autophosphorylation can be readily seen in the absence of enolase (see lanes 5 and 10).

[5] = Cerenkov counting of excised gel slices
[6] = ODN1 concentrations greater than 2 logs above the Ki for p210^bcr-abl

With “5'-GTCCACCATGGCGCGGCCGGC-3' [ODN1] (phosphorothioate caps, further chemistry not given here) [21mer ODN complementary to nucleotides -12 to +9 of the p210bcr-abl mRNA, phosphorothioate capped unless otherwise specified]” the “p210^bcr-abl autophosphorylation in the presence of enolase” value (p210^bcr-abl kinase [1]; 1 μM BCR-AS, lower concentrations of enolase, three minute reaction) was “only a slight effect”, the “nature of the enzymatic inhibition with respect to ATP” value (p210^bcr-abl kinase [1]; 1 μM ODN1) was “purely noncompetitive” and the IC50 (p210^bcr-abl kinase [1]; Cerenkov counting of excised gel slices, mean ± SD) was 520 ± 120 nM. For the same substance, the “Percent Remaining Activity of p210^bcr-abl kinase relative to control” value (p210^bcr-abl kinase [1]; ODN 1 μM, phosphorothioate capped, mean ± SE of three experiments) was 36 ± 1.2%, the “inhibition of p210^bcr-abl kinase activity in vitro (in words)” value (p210^bcr-abl kinase [1]) was “markedly inhibited” and the “inhibition of p210^bcr-abl kinase activity in vitro (in words)” value (p210^bcr-abl kinase [1]; listed as ODN1 phosphorothioate capped) was “intermediate potencies”. For the same substance, the Ki (p210^bcr-abl kinase [1]; various [γ-32P]ATP concentrations, presence or absence of 1 μM ODN1, double-reciprocal plot) was 520 ± 120 nM, the IC50 [2, 5] was over 100000 nM and the “inhibition of EGF receptor (in words)” value [2, 6] was “not significantly inhibited”. For the same substance, the IC50 (src kinase; [5]) was over 100000 nM, the “inhibition of src (in words)” value (src kinase; [6]) was “not significantly inhibited” and the “inhibition of enolase phosphorylation by p145^abl” value (p145^abl kinase) was “no significant inhibition”. For the same substance, the IC50 (lck kinase; [5]) was over 50000 nM, the “inhibition of lck (in words)” value (lck kinase; [6]) was “not significantly inhibited” and the “p210^bcr-abl kinase activity of ODN treated K562 cells” value [3] was “significantly decreased”. For the same substance, the “p210^bcr-abl kinase activity of ODN treated K562 cells” value ([3]; listed as BCR-AS) was “reduction”, the “phosphorylation of enolase by p210^bcr-abl” value (p210^bcr-abl kinase [4]; 1 μM BCR-AS, varying amounts of enolase, three minute reaction) was “no effect” and the “inhibition of enolase phosphorylation by p210^bcr-abl” value (p210^bcr-abl kinase [4]; ODN1 concentrations of up to 50 μM) was “no significant inhibition”.
